Experimental data: article PMC5118987 (Antimicrobial Agents and Chemotherapy, 2016)

Columns and labels:
[1] = Cytotoxicity assay in MT-4 cells; type: cell-based; settings: human, uninfected MT-4 cells
Procedure: For the antiviral assay utilizing MT-2 and MT-4 cells, 50 μl of a 2× test concentration of 5-fold serially diluted compound in culture medium with 10% FBS was added to each well of a 96-well plate (9 concentrations) in triplicate. MT-2 and MT-4 cells were infected with HIV-1 IIIb at a multiplicity of infection (MOI) of 0.01 for 3 h. Fifty microliters of infected cell suspension in culture medium with 10% FBS (∼1.5 × 10^4 cells) then was added to each well containing 50 μl of diluted compound. The plates were then incubated at 37°C for 5 days. After 5 days of incubation, 100 μl of CellTiter-Glo reagent (Promega Biosciences, Inc., Madison, WI) was added to each well containing MT-2 or MT-4 cells. Cell lysis was carried out by incubation at room temperature for 10 min and chemiluminescence was read. For compound cytotoxicity assessment, the protocol was identical except that uninfected cells were used and compounds were serially diluted 3-fold.

[2] = target: T1, HIV-1 IN 3′-processing activity (Human immunodeficiency virus type 1 group M subtype B, UniProt P04585); test: IN 3′-processing assay (HTRF); type: biochemical; settings: purified recombinant HIV-1 IN; mean ± SD, 5 experiments
T1 construct: Recombinant IN containing an N-terminal 6His tag was expressed in BL21(DE3) pLysS bacteria; 6His (N); made in house; host or cells: E. coli BL21(DE3) pLysS
Procedure: (§1) The strand transfer activity of IN was measured using an assay based on homogeneous time-resolved fluorescence resonance energy transfer (HTRF) ([34]) and has been previously described in detail ([35]). An HTRF-based 3′-processing assay was performed essentially as described for the IN strand transfer assay using a specially designed nonprocessed donor DNA in the absence of target DNA ([35]).

[3] = system: HIV-1 clonal variants; test: PhenoSense integrase assay, clonal variants from EVG/COBI/FTC/TDF virologic failures; type: cell-based
Source text: Clonal Analysis of HIV-1 from Patients. Plasma from 16 patients treated in Studies GS-US-236-0102 and GS-US-236-0103 with confirmed virologic failure and resistance development in the HIV-1 integrase gene were sent to Monogram Biosciences (South San Francisco, CA) for clonal analysis. The HIV-1 RNA was isolated and the cDNA was synthesized using Monogram proprietary primers. Using proprietary primers, PCR amplification of the entire protease, reverse transcriptase, and integrase coding regions of the pol gene were performed. PCR products were inserted into T/A cloning vectors.
Approximately 20 clones were chosen per patient sample for sequencing using proprietary primers. A subset of clones was chosen for phenotypic analysis based on the presence of INSTI resistance mutations. Resistance test vectors containing the patient-derived integrase coding region from selected clones were constructed using standard Monogram Biosciences protocols. […]
values) in these clones were obtained through a contract study by Monogram Biosciences using the PhenoSense integrase assay. The fold-change from the NL4-3 wild-type reference vector values was determined.

[4] = system: HIV-1 IIIb; test: microbe, parasite or virus in culture; settings: Human immunodeficiency virus 1, IIIB, MT4
Procedure: Each compound series was prepared several times independently in quadruplicate to capture the variations in Hill slope associated with preparation of compound serial dilutions. The assay was performed in a 384-well format. MT-4 cells were infected in bulk at the same MOI as that described above, and the plates were developed with CellTiter-Glo reagent 5 days postinfection.

[5] = system: HIV-1 integration in MT-2 cells (HIV-1 IIIb); settings: HIV-1 IIIb-infected MT-2, relative to mock-treated control
Procedure: Quantification of 2-long terminal repeat (LTR) circles, late reverse transcription products, and integration junctions was adapted from a previously described method ([30]). […] Three hours after viral adsorption, the infected cells were washed twice with 20 ml of RPMI 1640 medium containing 10% FBS and antibiotics and seeded in 6-well plates in 2 ml of culture medium at 1 × 10^6 cells per well. […] These plates were incubated at 37°C for either 12 h (for late reverse transcription product quantification) or 24 h (for 2-LTR circle and Alu-LTR product quantification), after which time the cells were harvested for total DNA isolation. DNA was extracted from each well using the QIAamp DNA minikit (Qiagen, Valencia, CA) and collected as a 100-μl eluate. TaqMan real-time PCR-quantified 2-LTR junctions (2-LTR circles), late reverse transcription products, and integration junctions (Alu-LTR) were normalized to the level of host globin gene in each sample. Quantification by PCR was performed on the ViiA 7 real-time PCR system (Life Technologies, Grand Island, NY).

[6] = system: HIV-1 IIIb; test: HIV breakthrough selection in MT-2 cells; settings: MT-2, HIV-1 IIIb; FTC 4× EC95, EVG 5× EC95, BIC and DTG 2.5× and 5× EC95; up to day 32
[7] = system: Influenza A/PC/1/73; test: microbe, parasite or virus in culture; type: cell-based; settings: NHBE
[8] = target: T2, HIV-1 IN strand transfer activity (Human immunodeficiency virus type 1 group M subtype B, UniProt P04585); test: IN strand transfer assay (HTRF); type: biochemical; settings: purified recombinant HIV-1 IN; mean ± SD, 3 experiments; read-out: IC50 Inhibition of strand transfer
T2 construct: Recombinant IN containing an N-terminal 6His tag was expressed in BL21(DE3) pLysS bacteria; 6His (N); made in house; host or cells: E. coli BL21(DE3) pLysS
Procedure: as §1

[9] = Cytotoxicity in AD38 cells; settings: human
[10] = system: HIV-1 patient-derived isolates with INSTI resistance mutations; test: PhenoSense IN assay, 47 patient-derived isolates; type: cell-based
Procedure: Forty-seven resistance test vectors containing patient-derived IN coding regions were constructed using standard Monogram Biosciences protocols. […] The fold change from the NL4-3 wild-type reference vector values was determined. Statistical significance was determined using the Student two-tailed t test.

[11] = system: organic cation transporter 2 (OCT2); settings: read-out: IC50 inhibition of organic cation transporter 2 (OCT2); cited from earlier work
[12] = via inhibition of OCT2 in proximal tubule; cited from earlier work

Structure (SMILES): O=C(NCc1c(F)cc(F)cc1F)c1cn2c(c(O)c1=O)C(=O)N1[C@H]3CC[C@H](C3)O[C@@H]1C2 [BIC, Bictegravir]
- CC50 at 5 days [1]: 3.66 µM
- IC50 [2]: 0.241 ± 0.051 µM
- EC50 ([3]; Human immunodeficiency virus 1, NL43, read-out: mean EC50 of wild-type virus): 0.00155 µM
- EC50 [4]: 0.0019 ± 0.0006 µM
- reduction of authentic integration products in infected cells [5]: 100 fold
- day postinfection of HIV-1 breakthrough [6]: no virus breakthrough was observed
- EC50 [7]: 53.5 µM
- IC50 [8]: 0.0075 ± 0.0003 µM
- CC50 at 5 days [9]: > 50 µM

Structure (SMILES): Cc1nnc(C(=O)NC(C)(C)c2nc(C(=O)NCc3ccc(F)cc3)c(O)c(=O)n2C)o1 [RAL, raltegravir]
- Susceptibility (Fold-change vs. WT) ([3]; clone 6041-11: E92Q): 3.67 fold-change
- Susceptibility (Fold-change vs. WT) ([3]; clone 6101-12: Q148R): 32 fold-change
- Susceptibility (Fold-change vs. WT) ([3]; clone 6101-14: N155H): 6.56 fold-change
- Susceptibility (Fold-change vs. WT) ([3]; clone 6101-15: E92Q): 4.41 fold-change
- Susceptibility (Fold-change vs. WT) ([3]; clone 6322-1: N155H, G163R): 15 fold-change
- Susceptibility (Fold-change vs. WT) ([3]; clone 6322-11: N155H): 11 fold-change
- Susceptibility (Fold-change vs. WT) ([3]; clone 6503-10: E92Q): 3.88 fold-change
- Susceptibility (Fold-change vs. WT) ([3]; clone 6545-7: N155H): 15 fold-change
- Susceptibility (Fold-change vs. WT) ([3]; clone 6648-7: E92Q): 4.20 fold-change
- Susceptibility (Fold-change vs. WT) ([3]; clone 6648-10: E92Q): 4.20 fold-change
- Susceptibility (Fold-change vs. WT) ([3]; clone 6648-11: E92Q): 3.97 fold-change
- Susceptibility (Fold-change vs. WT) ([3]; clone 6667-1: E92Q): 5.09 fold-change
- Susceptibility (Fold-change vs. WT) ([3]; clone 7299-11: Q148R, G140C): 24 fold-change
- Susceptibility (Fold-change vs. WT) ([3]; clone 7332-10: None): 0.79 fold-change
- Susceptibility (Fold-change vs. WT) ([3]; clone 7425-11: E92Q): 1.95 fold-change
- Susceptibility (Fold-change vs. WT) ([3]; clone 7476-5: T66I, E157Q): 1.63 fold-change
- Susceptibility (Fold-change vs. WT) ([3]; clone 7476-9: T66I, T97A, E157Q): 2.45 fold-change
- Susceptibility (Fold-change vs. WT) ([3]; clone 7562-12: N155H): 13 fold-change
- % of Isolates (Fold-Change vs. WT) (2.5 to <5) ([10]; 47 patient-derived isolates): 4%
- % of Isolates (Fold-Change vs. WT) (5 to <10) ([10]; 47 patient-derived isolates): 4%
- % of Isolates (Fold-Change vs. WT) (≤2.5) ([10]; 47 patient-derived isolates): 2%
- % of Isolates (Fold-Change vs. WT) (≥10) ([10]; 47 patient-derived isolates): 89%
- Fold-Change vs. WT Mean ([10]; 47 patient-derived isolates): > 100 fold change
- Fold-Change vs. WT Median ([10]; 47 patient-derived isolates): > 143 fold change
- Susceptibility (Fold-change vs. WT) ([10]; isolate entry 1: L74M,T97A): 8.48 fold-change
- Susceptibility (Fold-change vs. WT) ([10]; isolate entry 2: L68V,Y143C): 4.06 fold-change
- Susceptibility (Fold-change vs. WT) ([10]; isolate entry 3: L68L/V,L74M,Y143R): > 143 fold-change
- Susceptibility (Fold-change vs. WT) ([10]; isolate entry 4: T97A): 1.78 fold-change
- Susceptibility (Fold-change vs. WT) ([10]; isolate entry 5: T97A,F121Y): 112 fold-change
- Susceptibility (Fold-change vs. WT) ([10]; isolate entry 6: T97A,Y143R): > 143 fold-change
- Susceptibility (Fold-change vs. WT) ([10]; isolate entry 7: F121Y): 12 fold-change
- Susceptibility (Fold-change vs. WT) ([10]; isolate entry 8: L74M,N155H): 89 fold-change
- Susceptibility (Fold-change vs. WT) ([10]; isolate entry 9: T97A,N155H): 53 fold-change
- Susceptibility (Fold-change vs. WT) ([10]; isolate entry 10: T97A,Y143C): > 143 fold-change
- Susceptibility (Fold-change vs. WT) ([10]; isolate entry 11: E92Q,E157E/Q): 4.8 fold-change
- Susceptibility (Fold-change vs. WT) ([10]; isolate entry 12: E92Q): 18 fold-change
- Susceptibility (Fold-change vs. WT) ([10]; isolate entry 13: N155H,E157E/Q): 19 fold-change
- Susceptibility (Fold-change vs. WT) ([10]; isolate entry 14: E92Q): 6.7 fold-change
- Susceptibility (Fold-change vs. WT) ([10]; isolate entry 15: Y143R): 22 fold-change
- Susceptibility (Fold-change vs. WT) ([10]; isolate entry 16: Y143R): 16 fold-change
- Susceptibility (Fold-change vs. WT) ([10]; isolate entry 17: N155H): 107 fold-change
- Susceptibility (Fold-change vs. WT) ([10]; isolate entry 18: Y143C): 14 fold-change
- Susceptibility (Fold-change vs. WT) ([10]; isolate entry 19: T97A,Y143C): > 143 fold-change
- Susceptibility (Fold-change vs. WT) ([10]; isolate entry 20: Q148R,E138A): 43 fold-change
- Susceptibility (Fold-change vs. WT) ([10]; isolate entry 21: N155H,G163R): 15 fold-change
- Susceptibility (Fold-change vs. WT) ([10]; isolate entry 22: E92Q,N155H): > 143 fold-change
- Susceptibility (Fold-change vs. WT) ([10]; isolate entry 23: E138K,Q148R): 54 fold-change
- Susceptibility (Fold-change vs. WT) ([10]; isolate entry 24: G140S,Q148H): > 143 fold-change
- Susceptibility (Fold-change vs. WT) ([10]; isolate entry 25: E92Q,N155H,G163R): > 143 fold-change
- Susceptibility (Fold-change vs. WT) ([10]; isolate entry 26: G140A,Q148R): 88 fold-change
- Susceptibility (Fold-change vs. WT) ([10]; isolate entry 27: G140S,Q148H): > 143 fold-change
- Susceptibility (Fold-change vs. WT) ([10]; isolate entry 28: G140S,Q148H): > 143 fold-change
- Susceptibility (Fold-change vs. WT) ([10]; isolate entry 29: G140S, Q148H): > 143 fold-change
- Susceptibility (Fold-change vs. WT) ([10]; isolate entry 30: E138K,G140S,Q148H): > 143 fold-change
- Susceptibility (Fold-change vs. WT) ([10]; isolate entry 31: G140S,Q148H): > 143 fold-change
- Susceptibility (Fold-change vs. WT) ([10]; isolate entry 32: G140S,Q148H, G163K): > 143 fold-change
- Susceptibility (Fold-change vs. WT) ([10]; isolate entry 33: G140S,Q148H): > 143 fold-change
- Susceptibility (Fold-change vs. WT) ([10]; isolate entry 34: E138K,G140S,Q148H): > 143 fold-change
- Susceptibility (Fold-change vs. WT) ([10]; isolate entry 35: E138K G140S Q148H): > 114 fold-change
- Susceptibility (Fold-change vs. WT) ([10]; isolate entry 36: G140S,Q148H): > 143 fold-change
- Susceptibility (Fold-change vs. WT) ([10]; isolate entry 37: G140S,Q148R): > 143 fold-change
- Susceptibility (Fold-change vs. WT) ([10]; isolate entry 38: G140S,Q148H): > 143 fold-change
- Susceptibility (Fold-change vs. WT) ([10]; isolate entry 39: G140S,Q148H): > 143 fold-change
- Susceptibility (Fold-change vs. WT) ([10]; isolate entry 40: T97A,G140S,Q148H): > 143 fold-change
- Susceptibility (Fold-change vs. WT) ([10]; isolate entry 41: E138K,G140C,Q148R): > 143 fold-change
- Susceptibility (Fold-change vs. WT) ([10]; isolate entry 42: L74L/M,G140A,Q148R): > 143 fold-change
- Susceptibility (Fold-change vs. WT) ([10]; isolate entry 43: G140S,Q148R): > 143 fold-change
- Susceptibility (Fold-change vs. WT) ([10]; isolate entry 44: G140S,Q148H,E138A): > 143 fold-change
- Susceptibility (Fold-change vs. WT) ([10]; isolate entry 45: T97A,G140S,Q148H): > 143 fold-change
- Susceptibility (Fold-change vs. WT) ([10]; isolate entry 46: L74M,G140C,Q148R): > 143 fold-change
- Susceptibility (Fold-change vs. WT) ([10]; isolate entry 47: E138K,G140A,Q148K): > 143 fold-change

Structure (SMILES): C[C@@H]1CCO[C@H]2Cn3cc(C(=O)NCc4ccc(F)cc4F)c(=O)c(O)c3C(=O)N12 [DTG, Dolutegravir]
- CC50 at 5 days [1]: 14.7 µM
- IC50 [11]: 1.93 µM
- EC50 [4]: 0.0017 ± 0.0002 µM
- day postinfection of HIV-1 breakthrough [6]: no virus breakthrough was observed
- increase of human serum creatinine levels [12]: about 10%
- EC50 [7]: 12.8 µM
- CC50 at 5 days [9]: > 50 µM
